Where a SMILES comes first, the peptide text is derived from it. The star is where a group is joined. Lauroyl = CCCCCCCCCCCC(=O)*
System: S. aureus
Experiment: LIVE/DEAD BacLight bacterial viability
Type: cell-based, Staphylococcus aureus
Details: 0.39-25 µg/mL, 3 and 6 h of co-incubation
Experimental: Evaluation of the bacterial viability in the presence or absence of the tested compounds was performed according to the protocols developed for the laboratory kit LIVE/DEAD ®® BacLight TM Bacterial Viability Kits (Molecular Probes Europe BV, Amsterdam, The Netherlands). Briefly, late log phase cultures of E. coli and S. aureus in Luria-Bertani broth were harvested by centrifugation at 4000× g, the supernatant was removed, and pellets were resuspended in sterile water solution of 0.85% NaCl. Again, bacterial cells were centrifuged under the same conditions. In order to remove traces of growth, the medium washing step was repeated twice. At the end, pellets were resuspended in a fresh sterile 0.85% NaCl solution and diluted, yielding suspensions of E. coli, containing about 2 × 10^8 CFU/mL, and S. aureus with about 2 × 10^7 CFU/mL. Subsequently, 90 µL of bacterial suspensions (E. coli or S. aureus, respectively) were transferred to 96-well microtiter plates and 10 µL of the tested peptides were added to final concentrations ranging from 0.39 µg/mL to 25 µg/mL. […] Fluorescence was read with excitation wavelength set at 485 nm and emission wavelengths set at 530 nm (for green dye) and 630 nm (red dye) by means of CLARIOstar®® plate reader (BMG LABTECH, Germany).

CCCCCCCCCCCC(=O)N[C@H](C(=O)N[C@@H](CCCCN)C(=O)N[C@@H](CCCCN)C(=O)N[C@H](C(=O)N[C@@H](CC(C)C)C(=O)N[C@@H](CO)C(=O)N[C@@H](CCCCN)C(=O)N[C@H](C(=O)N[C@@H](CCCCN)C(=O)N[C@@H](CCCCN)C(=O)N[C@@H](CC(C)C)C(=O)N[C@@H](CC(C)C)C(N)=O)[C@@H](C)CC)[C@@H](C)CC)[C@@H](C)CC [Compound C12-DK5] (Lauroyl-IKKILSKIKKLL-NH2)
relative viability of S. aureus (live/dead): most active
